The results in this text go back to ChEMBL document CHEMBL1201862, “PubChem BioAssay data set” (2004).

Structures are written as SMILES.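 A five-concentration, 48-hour dose response in 96-well plates underlies each endpoint, interpolated linearly between surrounding concentrations. GI50 is the concentration that inhibits growth by half.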 Active and inactive are the calls of the source. Rule as the data show it: active = GI50 up to about 1.1 µM and inactive = higher. Bounds are passed on as bounds.

Among the test systems are HCT-15; OVCAR-4; NCI-H522; MDA-N; OVCAR-8; HOP-92; SW-620; EKVX; OVCAR-5; HL-60; TK-10; Hs-578T; CCRF-CEM; SF-295; MDA-MB-435; UACC-257; M14; PC-3; UO-31; HCC 2998.
Experiment in all cases: NCI tumour cell line growth inhibition, 48 h

`O=C(O)c1ccc(SSc2ccc(C(=O)O)cn2)nc1`: the GI50 with HCT-15 is above 100 µM; in the test with OVCAR-4, > 100 µM (inactive); with NCI-H522, > 100 µM (inactive); in the test on MDA-N it was > 100 µM (inactive); with OVCAR-8 it was > 100 µM (inactive); in the test on HOP-92, > 100 µM (inactive). Besides, the GI50 with SW-620, in the test on EKVX, in the test with OVCAR-5, in the test with HL-60, in the test with TK-10 and in the test on Hs-578T was > 100 µM (inactive) throughout. The GI50 in the test on CCRF-CEM, in the test on SF-295, in the test on MDA-MB-435, in the test with UACC-257, in the test with M14 and in the test on PC-3 was > 100 µM (inactive) throughout.

On to `NC(=O)c1nnc2cc(F)ccc2c1N`, for which the GI50 in the test on HCT-15 was above 100 µM; in the test with OVCAR-4, > 100 µM (inactive); with UO-31, 67.3 µM (inactive); with NCI-H522, 46.3 µM (inactive); in the test with MDA-N it was > 100 µM (inactive); with OVCAR-8, > 100 µM (inactive). The GI50 in the test with HCC 2998 was > 100 µM (inactive); in the test on SW-620 it was > 100 µM (inactive); with EKVX, 85.7 µM (inactive); with OVCAR-5 it was > 100 µM (inactive); with HL-60, > 100 µM (inactive); in the test with TK-10, 76.2 µM (inactive). In addition, the GI50 with Hs-578T, in the test with CCRF-CEM, in the test with SF-295, in the test on MDA-MB-435, with UACC-257 and with M14 was > 100 µM (inactive) throughout. The GI50 in the test on PC-3 is > 100 µM (inactive).

Consider `CC1=NNC(=O)C1C(CC(=O)c1c[nH]c2ccccc12)C(=O)O` (stereo unspecified), for which the GI50 with HCT-15 was 92.9 µM; with UO-31, 64.3 µM (inactive); in the test on NCI-H522, 72.1 µM (inactive); in the test with MDA-N, > 100 µM (inactive); with OVCAR-8, > 100 µM (inactive); in the test on HOP-92, > 100 µM (inactive). Besides, the GI50 in the test with SW-620 is > 100 µM (inactive); in the test on EKVX it was > 100 µM (inactive); in the test with OVCAR-5, > 100 µM (inactive); in the test on HL-60 it was 74.5 µM (inactive); in the test with TK-10 it was > 100 µM (inactive); in the test on Hs-578T, > 100 µM (inactive). The GI50 is 28.6 µM (inactive) in the test on CCRF-CEM; > 100 µM (inactive) in the test on SF-295; 68.5 µM (inactive) in the test with MDA-MB-435; > 100 µM (inactive) in the test with UACC-257; > 100 µM (inactive) in the test with M14; > 100 µM (inactive) in the test on PC-3.

On to `CC(=O)Nc1ccc2nncnc2c1`, for which the GI50 in the test with HCT-15 is above 100 µM; in the test with OVCAR-4, > 100 µM (inactive); in the test on UO-31, > 100 µM (inactive); in the test with NCI-H522 it was > 100 µM (inactive); in the test with MDA-N it was > 100 µM (inactive); in the test with OVCAR-8 it was > 10 µM (inactive). Moreover, the GI50 in the test on SW-620 is > 100 µM (inactive); in the test on EKVX, > 100 µM (inactive); with OVCAR-5, > 100 µM (inactive); with HL-60, > 100 µM (inactive); with TK-10 it was > 100 µM (inactive); with Hs-578T, 77.6 µM (inactive). Further, the GI50 with CCRF-CEM, in the test with SF-295, with MDA-MB-435, in the test with UACC-257, in the test on M14 and with PC-3 was > 100 µM (inactive) in each case.

With `NC(=O)CNC(=O)[C@@H]1C[C@@H](OCCC(=O)O)CN1C(=O)OCc1ccccc1`, the GI50 with HCT-15 is above 100 µM; with OVCAR-4, > 100 µM (inactive); in the test on UO-31 it was > 100 µM (inactive); in the test on NCI-H522, > 100 µM (inactive); with MDA-N it was > 100 µM (inactive); in the test with OVCAR-8 it was > 10 µM (inactive). Further, the GI50 in the test on SW-620, in the test on EKVX, with OVCAR-5, with HL-60, in the test with TK-10 and in the test with Hs-578T was > 100 µM (inactive) in each case. For the same molecule, the GI50 in the test with CCRF-CEM, with SF-295, with MDA-MB-435, in the test on UACC-257, in the test with M14 and in the test with PC-3 was > 100 µM (inactive) throughout.

On to `Cc1nnc([C@@]2(C)CC[C@H]3[C@@H](CC=C4C[C@@H](O)CC[C@@]43C)[C@@H]2CC#N)o1`, for which the GI50 is above 100 µM in the test on HCT-15; > 100 µM (inactive) with OVCAR-4; > 100 µM (inactive) in the test on UO-31; 22.5 µM (inactive) with NCI-H522; > 100 µM (inactive) with MDA-N; > 100 µM (inactive) in the test with OVCAR-8. Besides, the GI50 in the test with HOP-92, in the test with SW-620, with EKVX, in the test with OVCAR-5, in the test with HL-60 and with TK-10 was > 100 µM (inactive) throughout. The GI50 is 11.6 µM (inactive) in the test on Hs-578T; > 100 µM (inactive) in the test on CCRF-CEM; > 100 µM (inactive) with SF-295; > 100 µM (inactive) in the test with MDA-MB-435; 97.5 µM (inactive) in the test with UACC-257; > 100 µM (inactive) in the test on M14. Further, the GI50 in the test with PC-3 was > 100 µM (inactive).

As to `C=CCOCn1cc(C)c(=O)[nH]c1=O`, the GI50 with HCT-15 was above 100 µM; in the test with UO-31, > 100 µM (inactive); in the test on NCI-H522, 29.6 µM (inactive); with MDA-N, > 100 µM (inactive); in the test on OVCAR-8, > 100 µM (inactive); in the test on HCC 2998 it was > 100 µM (inactive). For the same molecule, the GI50 in the test with SW-620, in the test on EKVX, in the test with HL-60, in the test on TK-10, in the test with Hs-578T and with CCRF-CEM was > 100 µM (inactive) in each case. The GI50 with SF-295, in the test on MDA-MB-435, with UACC-257, in the test with M14 and in the test on PC-3 was > 100 µM (inactive) each time.

Regarding `Cn1c2ccccc2n2c(=O)c(-c3ccc(Cl)cc3)nnc12`, the GI50 with HCT-15 is above 100 µM; with OVCAR-4, 68.4 µM (inactive); with UO-31, > 100 µM (inactive); in the test on NCI-H522 it was > 100 µM (inactive); in the test on MDA-N, > 100 µM (inactive); with OVCAR-8, > 100 µM (inactive). Also, the GI50 in the test on HOP-92, with HCC 2998, with SW-620, in the test on EKVX, with OVCAR-5 and with HL-60 was > 100 µM (inactive) each time. Also, the GI50 with TK-10, in the test on Hs-578T, in the test on CCRF-CEM, in the test on SF-295, in the test on MDA-MB-435 and in the test on UACC-257 was > 100 µM (inactive) throughout. In addition, in the test on M14, the GI50 was > 100 µM (inactive).
